# Measured values: patent EP4137133A1, “CRYSTALLINE FORM OF AVACOPAN” (Sandoz AG, priority 2021, dated 2023)
# Experiments:
# [1] = Powder dissolution of crystalline avacopan forms in 0.1N HCl; assay type: physicochemical; conditions: 37°C; for Concentration: HPLC 243 nm
# Procedure: Powder dissolution experiments were carried out in 0.1N HCl at 37°C for the crystalline form of avacopan disclosed in WO 2021/092292 A1 and the crystalline Form HyA of avacopan of the present invention. Particle sizes of the forms were kept as similar as possible to allow for proper comparison. The respective concentrations were determined by HPLC at a wavelength of 243 nm.
# [2] = Gravimetric moisture sorption (GMS); assay type: physicochemical; conditions: 25 ± 0.1 °C
# Procedure: Moisture sorption isotherms were recorded with an SPSx-1µ moisture sorption analyzer (ProUmid, Ulm) together with other samples. The measurement cycle was started at ambient relative humidity (RH) of 40%. RH was then decreased to 5% in 5% steps, followed by a further decrease to 3% and to 0%. […] Finally, RH was increased to ambient relative humidity of […] in 5% steps. The time per step was set to a minimum of 2 hours and a maximum of 6 hours. If an equilibrium condition with a constant mass of ± 0.01% within 1 hour was reached before the maximum time for all examined samples the sequential humidity step was applied before the maximum time of 6 hours. If no equilibrium was achieved the consecutive humidity step was applied after the maximum time of 6 hours. The temperature was 25 ± 0.1 °C.
structure (smiles),measurement,setting,value
"Cc1ccc(NC(=O)[C@H]2CCCN(C(=O)c3c(C)cccc3F)[C@H]2c2ccc(NC3CCCC3)cc2)cc1C(F)(F)F [Crystalline Form of WO 2021/092292 A1, (2R,3S)-2-(4-(cyclopentylamino)phenyl)-1-(2-fluoro-6-methylbenzoyl)-N-(4-methyl-3-(trifluoromethyl)phenyl)piperidine-3-carboxamide, reference compound]",Concentration,[1]; time 0.25 h,4000 ng/mL
same,Concentration,[1]; time 0.5 h,6000 ng/mL
same,Concentration,[1]; time 0.75 h,6000 ng/mL
same,Concentration,[1]; time 1 h,7000 ng/mL
same,Concentration,[1]; time 1.25 h,7000 ng/mL
same,Concentration,[1]; time 1.5 h,8000 ng/mL
same,Concentration,[1]; time 1.75 h,8000 ng/mL
same,Concentration,[1]; time 2 h,8000 ng/mL
"Cc1ccc(NC(=O)[C@H]2CCCN(C(=O)c3c(C)cccc3F)[C@H]2c2ccc(NC3CCCC3)cc2)cc1C(F)(F)F [Form HyA, (2R,3S)-2-(4-(cyclopentylamino)phenyl)-1-(2-fluoro-6-methylbenzoyl)-N-(4-methyl-3-(trifluoromethyl)phenyl)piperidine-3-carboxamide]",mass change (0-15% RH),"[2]; GMS, 0-15% RH",2.2 w-%
same,mass change (0-90%RH),"[2]; GMS, 0-90% RH",3.2 w-%
same,mass change (15-90%),"[2]; GMS, 15-90% RH",1.0 w-%
same,hygroscopicity,"[2]; GMS, range of 15-90% RH",slightly hygroscopic
same,mass change,"[2]; GMS, range of 15-90% RH",1.0%
same,water released,"[2]; GMS, very dry conditions, below 15-0% RH",2.2%
same,PXRD after the GMS experiment (physical stability),[2]; after sorption/desorption cycles 0-90% RH,still shows the same PXRD
same,Concentration,[1]; time 0 h,0 ng/mL
same,Concentration,"[1]; time 0.25 h, listed as Form HyA of present invention",72000 ng/mL
same,Concentration,"[1]; time 0.5 h, listed as Form HyA of present invention",68000 ng/mL
same,Concentration,"[1]; time 0.75 h, listed as Form HyA of present invention",60000 ng/mL
same,Concentration,"[1]; time 1 h, listed as Form HyA of present invention",52000 ng/mL
same,Concentration,"[1]; time 1.25 h, listed as Form HyA of present invention",43000 ng/mL
same,Concentration,"[1]; time 1.5 h, listed as Form HyA of present invention",40000 ng/mL
same,Concentration,"[1]; time 1.75 h, listed as Form HyA of present invention",36000 ng/mL
same,Concentration,"[1]; time 2 h, listed as Form HyA of present invention",35000 ng/mL
same,solubility in 0.1N HCl compared to the crystalline form of avacopan disclosed in WO 2021/092292 A1,[1]; whole range from 15 minutes to 2 hours,significantly increased solubility
